Laboratory results published in US20240091254A1, “WNT AGONISTS FOR PREVENTION OF CANCER” (ACADEMISH MEDISCH CENTRUM, priority 2021, published 2024).

Key:
[1] = test system: Apc-/- mutant clones in crypts; experiment: Short term clonal dynamics of Notumpos/Apc-/- clones in Lgr5-CreErt2;Apcfl/fl mice; assay type: in vivo, mouse
Protocol: Lgr5-EGFP-IRES-Cre^ERT2 Villin-Cre^ERT2, Rosa26mTmG, Apc^fl/fl and Kras^G12D mice have been described earlier^30-34. All in vivo experiments were approved by the animal experimentation committee at the Amsterdam UMC—location Academic Medical Center in Amsterdam under nationally registered licence number AVD1180020172125 and performed according to national guidelines. Mice were housed in a 12 hour light/12 hour dark cycle, with temperatures between 20-24° C. and 40-70% humidity. For short term assays, both male and female mice were used. For long term assays, only females were used to prevent the risk of preliminary dropout due to fighting male mice. All mice were between 6-12 weeks old at the start of the experiments. For all mouse experiments, sufficient sample sizes were determined based on previous studies with a similar study design^3,35. Experimental animals were randomly assigned to the control or lithium treated groups, clone sizes and adenoma counts were scored blindly. In vivo low-dose recombination was induced by intraperitoneal injection (i.p.) of 0.3 mg (for Rosa26^mTmG and Kras^G12D mice) or 2 mg (for Ape^−/− mice) tamoxifen (Sigma) dissolved in sunflower oil. […] Treatment with LiCl was initiated 7 days before recombination by i.p. injection of tamoxifen and was administered until the day they were sacrificed. For short term experiments to study stem cell dynamics, mice were sacrificed at day 4, 7, 10, 14, 21 days after intra peritoneal (i.p.) injection and intestines were removed and further processed for analyses. For long term adenoma formation experiments, mice were injected with 2 mg tamoxifen and sacrificed 60 days after i.p. injection. Mouse discomfort during tumour formation assays was closely monitored, and endpoints were determined as <15% weight loss within 2 days or a mouse grimace scale (MGS) score<3. […] After 60 days, intestines were removed and polyps were counted macroscopically.
After the mice were sacrificed, intestines were removed fully and washed thoroughly with ice-cold PBS. The intestines were cut into pieces of 5 mm, opened longitudinally and fixed overnight in 4% paraformaldehyde (PFA) solution. To preserve tissue integrity the intestines were kept in 30% sucrose solution for another night before freezing. Crypt bottoms were sliced with a thickness of […] at a Cryostar™ NX70 cryostat and placed on glass slips. Fluorescent lineage tracing labels were visualized with a SP8X Confocal (Leica), slides were counterstained with Hoechst-33342. RNA-ISH stained coupes were counterstained with hematoxylin and scanned using the IntelliSite Ultra Fast 1.6 slide scanner (Philips). For all crypt analyses, clone sizes were quantified as proportions of the crypt circumference (in eights, 1:8-8:8).
RNA in situ hybridisation (RNAscope) and Basescope was performed on fixed frozen intestinal tissue (mouse) and paraffine embedded tissue (mouse and human) according to manufacturer's protocol (ACD RNAscope® 2.5 HD—Brown and Red, and ACD BaseScope™ v2—Red). RNAscope was used for detection of mouse Notum (#428981), Wif1 (#412361), Dkk2 (#404841) or positive control Ppib (#313911) and human NOTUM (#430311) and positive control PPIB (#313901). BaseScope probe ApcE14-E16 (#703011) was used to detect recombined Apc alleles. RNAscope duplex was performed using the RNAscope Duplex Reagent Kit (#322430, ACD) with additional Lgr5 probe (#312171-C2). After RNAscope procedures tissues were counterstained for Hematoxylin or Hoechst-33342. RNAscope was quantified using QuPath software v0.2.2^39.
The clone data was modelled using the models and methods developed in Vermeulen et al.^3. An R package implementing the model was used and is available at https://qithub.com/MorrisseyLab/CryptDriftR.

intestinal adenomas = experiment: Long term adenoma formation in Lgr5-CreErt2;Apcfl/fl mice; assay type: in vivo, mouse; conditions: LiCl pre-treatment and maintenance, 60 days after induction
Protocol: Lgr5-EGFP-IRES-Cre^ERT2 Villin-Cre^ERT2, Rosa26mTmG, Apc^fl/fl and Kras^G12D mice have been described earlier^30-34. All in vivo experiments were approved by the animal experimentation committee at the Amsterdam UMC—location Academic Medical Center in Amsterdam under nationally registered licence number AVD1180020172125 and performed according to national guidelines. Mice were housed in a 12 hour light/12 hour dark cycle, with temperatures between 20-24° C. and 40-70% humidity. For short term assays, both male and female mice were used. For long term assays, only females were used to prevent the risk of preliminary dropout due to fighting male mice. All mice were between 6-12 weeks old at the start of the experiments. For all mouse experiments, sufficient sample sizes were determined based on previous studies with a similar study design^3,35. Experimental animals were randomly assigned to the control or lithium treated groups, clone sizes and adenoma counts were scored blindly. […] Mouse discomfort during tumour formation assays was closely monitored, and endpoints were determined as <15% weight loss within 2 days or a mouse grimace scale (MGS) score<3. […] After 60 days, intestines were removed and polyps were counted macroscopically.

Compound: [Cl-].[Li+] [LiCl, lithium chloride]
- Reduction of Lgr5 expression by Notumpos/Apc-/- clones within the same and neighbouring crypts ([1]; Lgr5-CreErt2;Apcfl/fl mice, oral LiCl): prevented this
- Number of Notumpos clones (crypts) ([1]; LiCl treated mice, day 21): reduced number of Notum^pos clones
- Probability of clonal fixation in a crypt (Pfix) ([1]; LiCl treated mice, model): markedly reduced probability of clonal fixation
- Number of functional ISCs (WT stem cells, NWT) in crypts ([1]; LiCl treated mice, adapted drift model, 4.7 untreated with Apc-/- clones, 5.6 fully WT crypts): 6.5 (95% Cl: 6.2-6.8)
- Probability of replacement (PR) of WT ISCs by Apc-/- ISCs ([1]; LiCl treated mice, inferred by stem cell drift model, untreated 0.65, neutral 0.5): 0.34 (95% Cl: 0.31-0.37)
- Rate of Notumpos/Apc-/- clone expansion and fixation ([1]; LiCl versus non-treated mice, up to day 21): significantly reduced
- Adenoma formation (number of adenomas) (intestinal adenomas): markedly reduced adenoma formation in all segments of the intestine
